Consider 18 compounds from patent publication US20260085067A1, “CYCLIC SULFONAMIDE RIBONUCLEOTIDE REDUCTASE (RNR) INHIBITORS AND USES THEREOF” (Boundless Bio, Inc., priority 2022, published 2026).

The test system of test [1] is pCHK1 (S345) in Colo320 DM cells. In words: Alphalisa assay, detection of pCHK1 (S345) in Colo320 DM cells. Type of test: cell-based, human. Conditions: Homo sapiens, COLO 320DM, compound overnight (approximately 16 hours). Put shortly: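 Colo320 DM cells plated overnight, then exposed to compound for about 16 h at 37 °C (DMSO <0.5%). Cells lysed and phospho-CHK1 (S345) quantified by AlphaLisa SureFire with sequential 60 min acceptor and donor incubations at room temperature.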

In the next test the target is T1, RNR (RNR1:RNR2 1:1) (Homo sapiens, UniProt P23921).
T1 sequence (P23921 1-792): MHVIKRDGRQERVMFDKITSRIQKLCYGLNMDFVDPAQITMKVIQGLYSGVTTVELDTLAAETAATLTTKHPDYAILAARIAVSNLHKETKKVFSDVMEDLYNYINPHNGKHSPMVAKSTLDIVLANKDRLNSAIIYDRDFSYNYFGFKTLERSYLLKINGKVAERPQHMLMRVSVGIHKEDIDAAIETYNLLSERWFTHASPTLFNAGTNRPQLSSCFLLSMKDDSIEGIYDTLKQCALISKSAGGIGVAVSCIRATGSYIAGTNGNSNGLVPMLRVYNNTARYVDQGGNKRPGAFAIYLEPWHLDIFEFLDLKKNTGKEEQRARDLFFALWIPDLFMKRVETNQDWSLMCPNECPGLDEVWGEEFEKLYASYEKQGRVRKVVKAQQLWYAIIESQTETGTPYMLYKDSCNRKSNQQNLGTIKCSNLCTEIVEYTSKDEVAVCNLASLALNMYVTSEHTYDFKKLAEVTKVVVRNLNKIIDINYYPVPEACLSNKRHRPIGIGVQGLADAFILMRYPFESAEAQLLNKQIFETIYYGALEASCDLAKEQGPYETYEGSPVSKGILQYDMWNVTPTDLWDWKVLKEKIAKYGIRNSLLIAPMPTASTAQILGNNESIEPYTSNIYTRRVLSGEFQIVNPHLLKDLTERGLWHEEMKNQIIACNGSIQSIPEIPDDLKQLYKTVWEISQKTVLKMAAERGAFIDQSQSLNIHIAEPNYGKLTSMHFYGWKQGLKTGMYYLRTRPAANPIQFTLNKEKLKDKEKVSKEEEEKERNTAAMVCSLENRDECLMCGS
In words: RNR enzyme activity, rapid-fire mass spectrometry (RF/MS) assay. Type of test: biochemical. The note with it: [RNR] 50 nM, 1:1 RNR1:RNR2; CDP 5 μM; ATP 1 mM; 37° C., 45 min; compounds screened up to 50 μM. Put shortly:
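Human RNR (50 nM final, RNR1:RNR2 1:1) pre-incubated 15 min at room temperature, then reacted 45 min at 37 °C with 5 μM CDP and 1 mM ATP, no NADPH. Reaction quenched with 6% HCOOH; product quantified by rapid-fire mass spectrometry.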

For orientation: IC50 means the point on the concentration scale where inhibition reaches its midpoint. A high value points to weaker potency. As to `Cc1cc2c(cc1Cl)N(C)CN([C@H](c1n[nH]c(=O)o1)[C@H](C)c1c(F)ccc(C)c1C)S2(=O)=O` [Example 12, 5-((1S,2R)-1-(6-chloro-4,7-dimethyl-1,1-dioxido-3,4-dihydro-2H-benzo[e][1,2,4]thiadiazin-2-yl)-2-(6-fluoro-2,3-dimethylphenyl)propyl)-1,3,4-oxadiazol-2 (3H)-one], the IC50 in test [1] fell in the range of 5000 to 10000 nM; on RNR (RNR1:RNR2 1:1), 20 to 100 nM.

`Cc1ccc(F)c([C@@H](C)[C@@H](c2n[nH]c(=O)o2)N2CN(C3COC3)c3cc(Cl)ccc3S2(=O)=O)c1C` [Example 42, 5-((1S,2R)-1-(6-chloro-4-(oxetan-3-yl)-1,1-dioxido-3,4-dihydro-2H-benzo[e][1,2,4]thiadiazin-2-yl)-2-(6-fluoro-2,3-dimethylphenyl)propyl)-1,3,4-oxadiazol-2 (3H)-one]: the IC50 is no more than 1000 nM in test [1] and less than 20 nM against RNR (RNR1:RNR2 1:1).

Turning to `Cc1ccc(F)c([C@@H](C)[C@@H](c2n[nH]c(=O)o2)N2CCOc3cc(Cl)c(CO)cc3S2(=O)=O)c1C` [Example 77, 5-((1S,2R)-1-(7-chloro-8-(hydroxymethyl)-1,1-dioxido-3,4-dihydro-2H-benzo[b][1,4,5]oxathiazepin-2-yl)-2-(6-fluoro-2,3-dimethylphenyl)propyl)-1,3,4-oxadiazol-2 (3H)-one], the IC50 was greater than 50000 nM in test [1] and 100 to 1000 nM against RNR (RNR1:RNR2 1:1).

Turning to `COCc1cc2c(cc1Cl)OCCN([C@H](c1n[nH]c(=O)o1)[C@H](C)c1c(F)ccc(C)c1C)S2(=O)=O` [Example 69, 5-((1S,2R)-1-(7-chloro-8-(methoxymethyl)-1,1-dioxido-3,4-dihydro-2H-benzo[b][,4,5]oxathiazepin-2-yl)-2-(6-fluoro-2,3-dimethylphenyl)propyl)-1,3,4-oxadiazol-2 (3H)-one], the results for the concentration for half-maximal inhibition (IC50) (in test [1]; at RNR (RNR1:RNR2 1:1)) were greater than 50000 nM and 1000 to 10000 nM, respectively.

`Cc1ccc(F)c([C@@H](C)[C@@H](c2n[nH]c(=O)o2)N2CN(C)c3c(ccc(Cl)c3CN3CCCCC3)S2(=O)=O)c1C` [Example 61, 5-((1S,2R)-1-(6-chloro-4-methyl-1,1-dioxido-5-(piperidin-1-ylmethyl)-3,4-dihydro-2H-benzo[e][1,2,4]thiadiazin-2-yl)-2-(6-fluoro-2,3-dimethylphenyl)propyl)-1,3,4-oxadiazol-2 (3H)-one]: the IC50 was 10000 to 50000 nM in test [1] and 100 to 1000 nM at RNR (RNR1:RNR2 1:1).

For the compound `Cc1ccc(F)c([C@@H](C)[C@@H](c2n[nH]c(=O)o2)N2CN([C@@H]3CCN(CC(F)(F)F)C3)c3cc(Cl)ccc3S2(=O)=O)c1C` [Example 99, 5-((1S,2R)-1-(6-chloro-1,1-dioxido-4-((R)-1-(2,2,2-trifluoroethyl)pyrrolidin-3-yl)-3,4-dihydro-2H-benzo[e][1,2,4]thiadiazin-2-yl)-2-(6-fluoro-2,3-dimethylphenyl)propyl)-1,3,4-oxadiazol-2 (3H)-one], the IC50 in test [1] is no more than 1000 nM; against RNR (RNR1:RNR2 1:1) it was 20 to 100 nM.

With `Cc1ccc(F)c([C@@H](C)[C@@H](c2n[nH]c(=O)o2)N2CN(CC3COC3)c3cc(Cl)ccc3S2(=O)=O)c1C` [Example 83, 5-((1S,2R)-1-(6-chloro-4-(oxetan-3-ylmethyl)-1,1-dioxido-3,4-dihydro-2H-benzo[e][1,2,4]thiadiazin-2-yl)-2-(6-fluoro-2,3-dimethylphenyl)propyl)-1,3,4-oxadiazol-2 (3H)-one], the IC50 was no more than 1000 nM in test [1] and less than 20 nM on RNR (RNR1:RNR2 1:1).

On to `Cc1ccc(F)c([C@@H](C)[C@@H](c2n[nH]c(=O)o2)N2CN(C)c3cc(Cl)cc(C(N)=O)c3S2(=O)=O)c1C` [Example 22, 6-chloro-2-((1S,2R)-2-(6-fluoro-2,3-dimethylphenyl)-1-(5-oxo-4,5-dihydro-1,3,4-oxadiazol-2-yl)propyl)-4-methyl-3,4-dihydro-2H-benzo[e][1,2,4]thiadiazine-8-carboxamide 1,1-dioxide], for which the IC50 in test [1] is no more than 1000 nM; against RNR (RNR1:RNR2 1:1) it was less than 20 nM.

As for `Cc1ccc(F)c([C@@H](C)[C@@H](c2n[nH]c(=O)o2)N2CCOc3c(ccc(Cl)c3C(C)O)S2(=O)=O)c1C` (single isomer, unassigned) [Example 28], the IC50 in test [1] was greater than 50000 nM; on RNR (RNR1:RNR2 1:1), 1000 to 10000 nM.

As for `Cc1ccc(F)c([C@@H](C)[C@@H](c2n[nH]c(=O)o2)N2CN([C@H]3CCN(CC(F)(F)F)C3)c3cc(Cl)ccc3S2(=O)=O)c1C` [Example 101, 5-((1S,2R)-1-(6-chloro-1,1-dioxido-4-((S)-1-(2,2,2-trifluoroethyl)pyrrolidin-3-yl)-3,4-dihydro-2H-benzo[e][1,2,4]thiadiazin-2-yl)-2-(6-fluoro-2,3-dimethylphenyl)propyl)-1,3,4-oxadiazol-2 (3H)-one], the IC50 in test [1] was in the range of 1000 to 5000 nM; on RNR (RNR1:RNR2 1:1), 20 to 100 nM.

As to `Cc1ccc(F)c([C@@H](C)[C@@H](c2n[nH]c(=O)o2)N2CCOc3cc(Cl)cc(CO)c3S2(=O)=O)c1C` [Example 78, 5-((1S,2R)-1-(7-chloro-9-(hydroxymethyl)-1,1-dioxido-3,4-dihydro-2H-benzo[b][1,4,5]oxathiazepin-2-yl)-2-(6-fluoro-2,3-dimethylphenyl)propyl)-1,3,4-oxadiazol-2 (3H)-one], the IC50 in test [1] was no more than 1000 nM; on RNR (RNR1:RNR2 1:1), less than 20 nM.

`COCc1cc(Cl)cc2c1S(=O)(=O)N([C@H](c1n[nH]c(=O)o1)[C@H](C)c1c(F)ccc(C)c1C)CCO2` [Example 71, 5-((1S,2R)-1-(7-chloro-9-(methoxymethyl)-1,1-dioxido-3,4-dihydro-2H-benzo[b][1,4,5]oxathiazepin-2-yl)-2-(6-fluoro-2,3-dimethylphenyl)propyl)-1,3,4-oxadiazol-2 (3H)-one]: the IC50 in test [1] is no more than 1000 nM; against RNR (RNR1:RNR2 1:1) it was 100 to 1000 nM.

Turning to `Cc1ccc(F)c([C@@H](C)[C@@H](c2n[nH]c(=O)o2)N2CCOc3cc(Cl)cc(C)c3S2(=O)=O)c1C` [Example 24, 5-((1S,2R)-1-(7-chloro-9-methyl-1,1-dioxido-3,4-dihydro-2H-benzo[b][1,4,5]oxathiazepin-2-yl)-2-(6-fluoro-2,3-dimethylphenyl)propyl)-1,3,4-oxadiazol-2 (3H)-one], the IC50 in test [1] is greater than 50000 nM; on RNR (RNR1:RNR2 1:1), 100 to 1000 nM.

Turning to `Cc1ccc(F)c([C@@H](C)[C@@H](c2n[nH]c(=O)o2)N2CCOc3c(ccc(Cl)c3[C@H](C)N(C)C)S2(=O)=O)c1C` (single isomer, unassigned) [Example 53], the IC50 in test [1] was 1000 to 5000 nM; against RNR (RNR1:RNR2 1:1), less than 20 nM.

On to `Cc1ccc(F)c([C@@H](C)[C@@H](c2n[nH]c(=O)o2)N2CN(CCO)c3nc(Cl)ccc3S2(=O)=O)c1C` [Example 73, 5-((1S,2R)-1-(6-chloro-4-(2-hydroxyethyl)-1,1-dioxido-3,4-dihydro-2H-pyrido[2,3-e][1,2,4]thiadiazin-2-yl)-2-(6-fluoro-2,3-dimethylphenyl)propyl)-1,3,4-oxadiazol-2 (3H)-one], for which the IC50 was no more than 1000 nM in test [1] and less than 20 nM on RNR (RNR1:RNR2 1:1).

Take `COCCN1CN([C@H](c2n[nH]c(=O)o2)[C@H](C)c2c(F)ccc(C)c2C)S(=O)(=O)c2ccc(Cl)cc21` [Example 45, 5-((1S,2R)-1-(6-chloro-4-(2-methoxyethyl)-1,1-dioxido-3,4-dihydro-2H-benzo[e][1,2,4]thiadiazin-2-yl)-2-(6-fluoro-2,3-dimethylphenyl)propyl)-1,3,4-oxadiazol-2 (3H)-one]: the IC50 in test [1] was no more than 1000 nM; on RNR (RNR1:RNR2 1:1), less than 20 nM.

Regarding `Cc1ccc(F)c([C@@H](C)[C@@H](c2n[nH]c(=O)o2)N2CCOc3cc(Cl)cc(C(N)=O)c3S2(=O)=O)c1C` [Example 23, 7-chloro-2-((1S,2R)-2-(6-fluoro-2,3-dimethylphenyl)-1-(5-oxo-4,5-dihydro-1,3,4-oxadiazol-2-yl)propyl)-3,4-dihydro-2H-benzo[b][1,4,5]oxathiazepine-9-carboxamide 1,1-dioxide], the IC50 in test [1] was 1000 to 5000 nM; against RNR (RNR1:RNR2 1:1) it was less than 20 nM.

Turning to `Cc1ccc(F)c([C@@H](C)[C@@H](c2n[nH]c(=O)o2)N2CN(CC3CCOC3)c3cc(Cl)ccc3S2(=O)=O)c1C` (stereo partly drawn) [Example 49, 5-((1S,2R)-1-(6-chloro-1,1-dioxido-4-((tetrahydrofuran-3-yl)methyl)-3,4-dihydro-2H-benzo[e][1,2,4]thiadiazin-2-yl)-2-(6-fluoro-2,3-dimethylphenyl)propyl)-1,3,4-oxadiazol-2 (3H)-one], the IC50 in test [1] was no more than 1000 nM; on RNR (RNR1:RNR2 1:1), less than 20 nM.
